Assay results: patent publication US6528685B2 (Teva Pharmaceutical Industries, Ltd., priority 1994, dated 2003)
Structures can show the parent of a compound that is named as a salt.

Key:
[1] = test system: Mechanically dissociated Neonatal Rat Cerebellum; assay: Enhancement of cell survival, neonatal rat cerebellum cultures without NMDA; format: cell-based; conditions: 0.005 μM; 24 hours after addition, fourth day; percentage of control cells; no NMDA
Method: The cerebellum was aseptically dissociated from 6 or 7-day old rat pups and placed in a 15 ml sterile plastic conical tube containing 3 ml of Dulbecco's modified Eagle's medium (DMEM) with a high glucose concentration ([…]) and 2 mM (v/v) L-glutamine and an antibiotic antimitotic mixture. The cerebella were then dissociated after 20-25 passages through a sterile 13 gauge, 10 cm long stainless steel needle attached to a 5 ml syringe with an inserted 45 micrometer pore nylon sieve. The dissociated cells were centrifuged at 200 g for 5 minutes. […] Cell viability was determined by the tryptan blue exclusion test.
Cells were plated at a density of 200/mm^2 on poly-L-lysine coated surfaces. Poly-L-lysine coated glass coverslips were prepared at least one hour in advance of plating by immersing sterile coverslips in sterile distilled water solution containing 15 microgram/ml poly-L-lysine, and washing in sterile water just prior to use. […] After three days in culture, the media was replaced with media containing the desired test compound. Each test compound was tested in duplicate. Toxic-dose response was determined for each compound.
Cell cultures were grown as described above but in the absence of NMDA and after 3 days a dose of test compound was added. Cell survival was monitored as described above.

[2] = test system: mongolian gerbils; assay: Global brain ischemia in gerbils; format: in vivo, mongolian gerbil; conditions: 3 injections, fraction of hippocampi protected from ischemia, 14 days post-ischemia
Method: Male mongolian gerbils, aged 2.5-5 months, housed 4-8 in a cage, were supplied freely with food and water and maintained at 24° C. with a 12 hour day/night cycle. […] Each artery was clamped for 5 minutes with aneurysm clips to produce global brain ischemia. The anesthesia was discontinued upon clamping. After 5 minutes the clamps were removed and the wound closed with skin clips.
For treatment, the test compound or vehicle were injected intra-peritoneally (ip) in a volume of 50 microliters of solvent per 10 g body weight. The first injection was given two minutes after clamp removal, and thereafter daily for the next 2 post-operative days (total of 3 injections).
Seven groups each of 4-8 animals were compared:
V. Ischemia—Test compound treated, one sub-group per concentration tested,
VI. Ischemia and pentobarbital (40 mg/kg) as positive control).
Analysis of neuronal damage was performed 14 days post-ischemia by counting pyramidal neurons throughout the CA1 layer of the anterior hippocampus in […] thick (paraffin) coronal brain sections stained with hematoxylin and erosin.
Percent Protection values represent the fraction of hippocampi protected from ischemia in a group of animals treated with the stated dose of compound.

[3] = test system: mice; assay: Maximal electroshock (MES) model, mice; conditions: mice, intraperitoneal (i.p.) administration
[4] = test system: mice; assay: Neurotoxicity in mice, rotorod ataxia test; conditions: mice i.p.; rotorod ataxia test
Method: (§1) Neurotoxicity of the claimed agents was also assessed in mice (i.p. administration) by the rotorod ataxia test and/or in rats (p.o. administration) by positional sense test and gait stance test. […] The term quantitating the neurotoxicity is the medial neurological toxic dose (TD50), was determined in the above tests.

[5] = test system: Mechanically dissociated Neonatal Rat Cerebellum; assay: Reversal of NMDA induced cell death, neonatal rat cerebellum cultures; format: cell-based; conditions: for SURVIVING CELL IN CULTURE: relative to control (100%); for PERCENT PROTECTION: cell survival minus NMDA effect (30%); for EFFECTIVE PROTECTION: percent protection x 100/70
Method: The cerebellum was aseptically dissociated from 6 or 7-day old rat pups and placed in a 15 ml sterile plastic conical tube containing 3 ml of Dulbecco's modified Eagle's medium (DMEM) with a high glucose concentration ([…]) and 2 mM (v/v) L-glutamine and an antibiotic antimitotic mixture. The cerebella were then dissociated after 20-25 passages through a sterile 13 gauge, 10 cm long stainless steel needle attached to a 5 ml syringe with an inserted 45 micrometer pore nylon sieve. The dissociated cells were centrifuged at 200 g for 5 minutes. The supernatant was discarded and the cells resuspended in medium enriched with 15% (v/v) heat inactivated fetal calf serum. Cell viability was determined by the tryptan blue exclusion test.
Cells were plated at a density of 200/mm^2 on poly-L-lysine coated surfaces. Poly-L-lysine coated glass coverslips were prepared at least one hour in advance of plating by immersing sterile coverslips in sterile distilled water solution containing 15 microgram/ml poly-L-lysine, and washing in sterile water just prior to use. The plated cells were covered with enriched medium and incubated at 37° C. in an atmosphere of 5% CO2 in air and 97% humidity. After three days in culture, the media was replaced with media containing the desired test compound. Each test compound was tested in duplicate. Toxic-dose response was determined for each compound.
Four groups were run in each set of experiments;
I. Control, consisting of enriched media alone,
II. N-methyl-D-aspartate (NMDA, 1 mM for 3 hours) as the cytotoxic challenge,
III. Test compound plus NMDA, and
IV. Positive control, spermine(0.01 micromoles) plus NMDA.
Nerve cell survival was evaluated by phase contrast microscopy and tryptan blue staining after 24 hours.
Surviving cells in culture are measured relative to control (100%) as described above. Percent protection is the Cell Survival for the test compound minus the NMDA effect. Thus, maximal protection is 100% minus 30% NMDA effect i.e. 70%. The Effective Protection was calculated as the percent of the Percent Protection (X) divided by the maximal protection value (e.g. X×100/70).

[6] = test system: rats; conditions: rats p.o.
[7] = test system: mice; conditions: mice i.p.
[8] = test system: rats; assay: Neurotoxicity in rats, positional sense test and gait stance test; conditions: rats p.o.; positional sense test and gait stance test
Method: as §1

[9] = test system: rats; assay: Maximal electroshock (MES) model, rats; conditions: rats, oral (p.o.) administration; median effective dose

NC(=O)CN[C@H]1CCc2ccccc21 [Compound 2, (S)-N-(2-Acetamido)-1-aminoindan.HCl]
% ENHANCED SURVIVAL [1]: 140%
PERCENT PROTECTION ([2]; 0.1 mg/kg ip): 0%
PERCENT PROTECTION ([2]; 1.0 mg/kg ip): 50.0%
PERCENT PROTECTION ([2]; 10.0 mg/kg ip): 37.5%
MICE MES ED50 [3]: 39 mg/kg
MICE TD50 [4]: 137 mg/kg
SURVIVING CELL IN CULTURE ([5]; 0.005 μM + NMDA 1 mM 3 hours): 56%
PERCENT PROTECTION ([5]; 0.005 μM + NMDA): 26%
EFFECTIVE PROTECTION ([5]; 0.005 μM + NMDA): 37%
SURVIVING CELL IN CULTURE ([5]; 0.010 μM + NMDA 1 mM 3 hours): 51%
PERCENT PROTECTION ([5]; 0.010 μM + NMDA): 21%
EFFECTIVE PROTECTION ([5]; 0.010 μM + NMDA): 30%
SURVIVING CELL IN CULTURE ([5]; 0.100 μM + NMDA 1 mM 3 hours): 33%
PERCENT PROTECTION ([5]; 0.100 μM + NMDA): 3%
EFFECTIVE PROTECTION ([5]; 0.100 μM + NMDA): 4%
RATS scMet ED50 PI [6]: >250 mg/kg
MICE scMet ED50 PI [7]: >150 mg/kg
RATS TD50 [8]: >500 mg/kg
RATS MES 50 [9]: 21 mg/kg
